Measured values published in US8663646B2, “P53 peptide vaccine” (priority 2007, dated 2014).
Read-outs that look alike come from different tables or passages of the source. Where no end group is shown, it is not given here.

Legend:
[1] = biological target: T1, HLA-A*0101 (Homo sapiens, UniProt P04439, A114D/A174V/A182V/D101N/D185E/E176A/E190D/L180R/Q94H/R68K/S129P/T187R/V100A/V91M/W191G); assay: Stability of peptide-HLA complex, binding at 4° C. and 20° C., HLA-A*0101; details: for HLA binding Stability (Table 5): HLA type A1; for Peptide Binding Stability: HLA-A*0101, IC50 at 20° C. vs 4° C.
T1 construct: B-cell lines used are: CAA (A*0101), EKR (A*0301), BVR (A*1101), VIJF (A*2401); endogenous in cells; host or cells: B-cell line CAA

[2] = biological target: T2, HLA-A*0301 (Homo sapiens, UniProt P04439); assay: Stability of peptide-HLA complex, binding at 4° C. and 20° C., HLA-A*0301
T2 construct: B-cell lines used are: CAA (A*0101), EKR (A*0301), BVR (A*1101), VIJF (A*2401); endogenous in cells; host or cells: B-cell line EKR
Outline: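 Competition binding used B-cell lines CAA (A*0101), EKR (A*0301), BVR (A*1101) and VIJF (A*2401) against fluorescein-labelled reference peptides. IC50 is the peptide concentration inhibiting 50% of reference binding. Binding was run at 4 °C and 20 °C with IC50 determined at each; complexes losing >50% within 2 hours were deemed unstable.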

[3] = test system: proteasome; assay: Proteasome processing, summarised over proteasome types (Table 5); type: biochemical; details: 30 residue long precursor peptides
Procedure: (§1) In the context of the invention, “being inefficiently processed by a proteasome” preferably means that within the first hour of digestion by a proteasome less than 1% of total digested peptide is found. The processing by a proteasome is preferably assessed by incubating a purified proteasome, more preferably a human proteasome with a peptide comprising the potential CTL epitope (30 amino acid length approximately) in a proteasome digestion buffer during at least one hour at 37° C. The reaction is subsequently stopped by adding trifluoroacetic acid. Analysis of the digested peptides is performed with electrospray ionization mass spectrometry (see example 1). Even more preferably, the human proteasome is an immunoproteasome from B-LCL JY cells (Kessler J H et al. 2001).
(§2) 20S immuno-proteasomes were purified from a mouse B-cell line (RMA) and a human B-LCL cell line (JY) and 20S household proteasomes were purified from human tumor cell line (HeLa) as described (Kessler J H et al 2001). To assess kinetics, digestions were performed with different incubation periods as indicated. Briefly, peptides containing the (potential) CTL epitopes (30 mers, 20 μg) were incubated with 1 μg of purified proteasome at 37° C. for 1 h, 4 h and 24 h in 300 μl proteasome digestion buffer, trifluoroacetic acid (30 μl) was added to stop the digestion and samples were stored at −20° C. before mass spectrometric analysis. Electrospray ionization mass spectrometry was performed on a hybrid quadrupole time-of-flight mass spectromter, a Q-TOF (Micromass), equipped with an on-line nanoelectrospray interface with an approximate flow rate of […] as described (Kessler J H et al 2001). The peaks in the mass spectrum were searched in the digested precursor peptide using the Biolynx/proteins software (Micromass) supplied with the mass spectrometer. The intensity of the peaks in the mass spectra was used to establish the relative amounts of peptides generated after proteasome digestion. The relative amounts of the peptides are given as a percentage of the total amount of peptide digested by the proteasome at the indicated incubation time. Major cleavage sites are defined as more than >1% of total digested peptide within the first hour.

[4] = test system: HLA-A*2401; assay: Competition based cellular binding assay, HLA-A*2401 (B-cell line VIJF); design: species or system human; details: HLA-A*2401, IC50 category
[5] = test system: HLA-A*2401; assay: Stability of peptide-HLA complex, binding at 4° C. and 20° C., HLA-A*2401; design: species or system human; details: HLA-A*2401; IC50 at 20° C. vs 4° C.
Procedure: Stability of other peptide-HLA complexes was preferably determined as follows. […] Peptides of >50% of the initial complexes was lost within 2 hours were considered unstable. […] The rest was designated as unstable peptide binding.
Peptides 8-11 residues in length were selected based on typical anchor residues for HLA-A*0101, A*0301, A*1101 and HLA-A*2401 (Rammensee H G et al). The capacity of peptides to bind was tested in a competition based cellular binding assay as previously described (van der Burg S H et al 1995). FL-labeled reference peptides were synthesized as Cys-derivative (van der Burg S H et al 1995). Fluorescence labeled reference peptides used were: YLEPAC(FL)AK (SEQ ID NO: 87) (HLA-A*0101) and KVFPC(FL)ALINK (SEQ ID NO: 88) (HLA-A*1101) (Sette A et al), KVFPC(FL)ALINK (SEQ ID NO: 89) (HLAA*0301) (van der Burg S H et al 1995) and RYLKC(FL)QQLL (SEQ ID NO: 90) (A*2401) (Dai L C et al). B-cell lines used are: CAA (A*0101), EKR (A*0301), BVR (A*1101), VIJF (A*2401). The relative binding capacity of the peptides is expressed as the peptide concentration to inhibit 50% (1050) of the binding of the reference peptide. […] Peptide stabilization for HLA-A*0201 was performed as previously described (van der Burg S H et al, 1996). Peptides of >50% of the initial complexes was lost within 2 hours were considered unstable. Stability of other peptide-HLA complexes was determined as follows. Peptide binding was performed at 4° C. and 20° C. and 1050 were determined. […] The rest was designated as unstable peptide binding.

[6] = biological target: T3, 20S immuno-proteasomes from human B-LCL cell line (JY) (Homo sapiens, UniProt P28062+P28065+P40306); assay: In vitro proteasome mediated digestion of 30-mers, mass spectrometry, immunoproteasome JY; type: biochemical; details: 30 residue long precursor peptides
T3 construct: purified from a mouse B-cell line (RMA) and a human B-LCL cell line (JY); endogenous in cells; host or cells: B-LCL JY cells; 20S proteasome purified from them
Outline: (§3)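 30-mer peptides (20 μg) digested with 1 μg purified 20S proteasome (JY or RMA immunoproteasome, HeLa household proteasome) at 37° C for 1, 4 and 24 h, stopped with TFA. Nano-ESI Q-TOF MS; fragments quantified by peak intensity as percent of total digested peptide per time point; major cleavage site >1% within first hour.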

[7] = biological target: T4, 20S immuno-proteasomes from mouse B-cell line (RMA) (Mus musculus, UniProt O35955+P28063+P28076); assay: In vitro proteasome mediated digestion of 30-mers, mass spectrometry, immunoproteasome RMA; type: biochemical; details: 30 residue long precursor peptides
T4 construct: 20S immuno-proteasomes were purified from a mouse B-cell line (RMA); endogenous in cells; host or cells: RMA cells; 20S proteasome purified from them
Outline: as §3

[8] = biological target: HLA-A*0201 (Homo sapiens, UniProt P04439, D140Y/D185E/D98H/E176V/E277Q/G131W/G231S/I119V/I121R/I166T/I218V/L300P/L318F/N151K/N90K/P208A/P217A/Q86G/Q94H/R138H/R169H/T345S); assay: Peptide stabilization for HLA-A*0201; type: binding; details: for Peptide Binding Stability: HLA-A*0201, p53 peptides
[9] = biological target: T5, 20S household proteasomes from human tumor cell line (HeLa) (Homo sapiens, UniProt P28072+P28074+Q99436); assay: In vitro proteasome mediated digestion of 30-mers, mass spectrometry, household proteasome HeLa; type: biochemical; details: 30 residue long precursor peptides
T5 construct: 20S household proteasomes were purified from human tumor cell line (HeLa); endogenous in cells; host or cells: HeLa cells; 20S proteasome purified from them
Procedure: as §1, §2

[10] = biological target: T1, HLA-A*0101; assay: Competition based cellular binding assay, HLA-A*0101 (B-cell line CAA)
[11] = biological target: T3, 20S immuno-proteasomes from human B-LCL cell line (JY); details: PRAME peptides (Kessler J H et al 2001); cited from earlier work
[12] = HLA-A*0101, IC50 category, read-out: Peptide Binding Affinity

Molecule: CC(C)[C@H](NC(=O)[C@H](CO)NC(=O)[C@H](CCCCN)NC(=O)[C@H](C)NC(=O)[C@@H](NC(=O)CN)[C@@H](C)O)C(=O)N[C@H](C(=O)N[C@@H](CS)C(=O)N[C@H](C(=O)N[C@@H](Cc1ccc(O)cc1)C(=O)O)[C@@H](C)O)[C@@H](C)O [p53 117-126]
- HLA binding Stability (Table 5) [1]: + (Stable peptides displayed IC50 at 20 °C that deviated <2 times of the IC50 at 4° C.)
- Peptide Binding Stability [1]: + (Stable peptides displayed IC50 at 20 °C that deviated <2 times of the IC50 at 4° C.)
- HLA binding Stability (Table 5) ([2]; HLA type A3): − (The rest was designated as unstable peptide binding.)
- Peptide Binding Stability ([2]; HLA-A*0301, IC50 at 20° C. vs 4° C.): − (The rest was designated as unstable peptide binding.)

Molecule: CSCC[C@H](NC(=O)[C@H](CCCCN)NC(=O)[C@H](CC(N)=O)NC(=O)[C@H](CC(C)C)NC(=O)[C@H](C)NC(=O)[C@@H]1CCCN1C(=O)[C@H](CO)NC(=O)[C@H](Cc1ccc(O)cc1)NC(=O)[C@@H](N)[C@@H](C)O)C(=O)N[C@@H](Cc1ccccc1)C(=O)O [p53 125-134]
- generation / processing by household and immunoproteasomes, in words [3]: not/inefficiently processed
- Peptide Binding Affinity [4]: high
- IC50 ([4]; read-out: Peptide Binding Affinity): < 5 µM
- Peptide Binding Stability [5]: + (Stable peptides displayed IC50 at 20 °C that deviated <2 times of the IC50 at 4° C.)

Molecule: CC(C)[C@H](NC(=O)[C@H](CCCNC(=N)N)NC(=O)[C@@H](NC(=O)CNC(=O)[C@@H]1CCCN1C(=O)[C@@H]1CCCN1C(=O)[C@@H]1CCCN1C(=O)[C@@H](NC(=O)[C@@H](N)CO)[C@@H](C)O)[C@@H](C)O)C(=O)O [p53 149-157]
- Proteasomal Cleavage of C-terminus, IP (JY) [6]: + (Major cleavage sites are defined as more than >1% of total digested peptide within the first hour)
- generation / processing by household and immunoproteasomes, in words [3]: efficiently generated
- Proteasomal Cleavage of C-terminus, IP (RMA) [7]: + (Major cleavage sites are defined as more than >1% of total digested peptide within the first hour)
- capacity to form stable peptide-HLA-A*0201 complexes, in words [8]: weak
- HLA binding Stability (Table 5) ([8]; HLA type A2, class symbol): − (Peptides of >50% of the initial complexes was lost within 2 hours were considered unstable)
- Peptide Binding Stability [8]: <2 h
- Proteasomal Cleavage of C-terminus, HH (HeLa) [9]: + (Major cleavage sites are defined as more than >1% of total digested peptide within the first hour)

Molecule: CC[C@H](C)[C@H](NC(=O)[C@H](CC(C)C)NC(=O)[C@H](Cc1c[nH]cn1)NC(=O)[C@H](CCC(N)=O)NC(=O)[C@@H]1CCCN1C(=O)[C@@H]1CCCN1C(=O)[C@H](C)NC(=O)[C@H](CC(C)C)NC(=O)CN)C(=O)N[C@@H](CCCNC(=N)N)C(=O)N[C@H](C(=O)O)C(C)C [p53 187-197]
- Proteasomal Cleavage of C-terminus, IP (JY) [6]: + (Major cleavage sites are defined as more than >1% of total digested peptide within the first hour)
- generation / processing by household and immunoproteasomes, in words [3]: efficiently generated
- Proteasomal Cleavage of C-terminus, IP (RMA) [7]: + (Major cleavage sites are defined as more than >1% of total digested peptide within the first hour)
- capacity to form stable peptide-HLA-A*0201 complexes, in words [8]: forms stable peptide-HLA complexes
- Peptide Binding Stability [8]: 6 h
- Proteasomal Cleavage of C-terminus, HH (HeLa) [9]: + (Major cleavage sites are defined as more than >1% of total digested peptide within the first hour)

Molecule: CC[C@H](C)[C@H](NC(=O)[C@@H](NC(=O)[C@@H](NC(=O)[C@@H](N)CS)[C@@H](C)O)[C@@H](C)O)C(=O)N[C@@H](Cc1c[nH]cn1)C(=O)N[C@@H](Cc1ccc(O)cc1)C(=O)N[C@@H](CC(N)=O)C(=O)N[C@@H](Cc1ccc(O)cc1)C(=O)O [p53 229-236]
- IC50 ([10]; HLA type A1, read-out: HLA binding Affinity (Table 5)): 15 to 50 µM
- IC50 [10, 12]: 5 to 15 µM
- HLA binding Stability (Table 5) [1]: − (The rest was designated as unstable peptide binding.)
- Peptide Binding Stability [1]: − (The rest was designated as unstable peptide binding.)

Molecule: CC(C)C[C@H](NC(=O)[C@@H](N)CC(C)C)C(=O)NCC(=O)N[C@@H](CCCNC(=N)N)C(=O)N[C@@H](CC(N)=O)C(=O)N[C@@H](CO)C(=O)N[C@@H](Cc1ccccc1)C(=O)N[C@@H](CCC(=O)O)C(=O)N[C@H](C(=O)O)C(C)C [p53 264-272]
- generation / processing by household and immunoproteasomes, in words [3]: not well processed

Molecule: ALYVDSLFFL [PRA 300-309]
- Proteasomal Cleavage of C-terminus, IP (JY) [11]: + (Major cleavage sites are defined as more than >1% of total digested peptide within the first hour)

Molecule: SLLQHLIGL [PRA 425-433]
- Proteasomal Cleavage of C-terminus, IP (JY) [11]: + (Major cleavage sites are defined as more than >1% of total digested peptide within the first hour)

Molecule: SLYSFPEPEA [PRA 142-151]
- Proteasomal Cleavage of C-terminus, IP (JY) [11]: + (Major cleavage sites are defined as more than >1% of total digested peptide within the first hour)

Molecule: YLDDRNTFRH [p53 205-214]
- HLA binding Affinity (Table 5) ([10]; HLA type A1): int
- IC50 [10, 12]: 5 to 15 µM
- HLA binding Stability (Table 5) [1]: + (Stable peptides displayed IC50 at 20 °C that deviated <2 times of the IC50 at 4° C.)
- Peptide Binding Stability [1]: + (Stable peptides displayed IC50 at 20 °C that deviated <2 times of the IC50 at 4° C.)
